In patent US9416128B2, “Fused heterocyclic compounds as ion channel modulators” (Gilead Sciences, Inc., priority 2013, dated 2016):

Assays:
hNaV1.2 (SCN2A) = target: T1, hNaV1.2 (SCN2A) (Homo sapiens, UniProt Q99250); test: Use-dependent inhibition of the CNS NaV1.2 sodium channel; type: cell-based; conditions: % inhibition; for inhibition at 1 µM / inhibition at 10 µM: HEK-293, 25 Hz; for inhibition at 1 µM: read-out: Nav1.2 UDB 25 Hz 1 uM; for inhibition at 10 µM: read-out: Nav1.2 UDB 25 Hz 10 uM
T1 construct: expressed in transfected cells
T1 sequence (Q99250 whole entry): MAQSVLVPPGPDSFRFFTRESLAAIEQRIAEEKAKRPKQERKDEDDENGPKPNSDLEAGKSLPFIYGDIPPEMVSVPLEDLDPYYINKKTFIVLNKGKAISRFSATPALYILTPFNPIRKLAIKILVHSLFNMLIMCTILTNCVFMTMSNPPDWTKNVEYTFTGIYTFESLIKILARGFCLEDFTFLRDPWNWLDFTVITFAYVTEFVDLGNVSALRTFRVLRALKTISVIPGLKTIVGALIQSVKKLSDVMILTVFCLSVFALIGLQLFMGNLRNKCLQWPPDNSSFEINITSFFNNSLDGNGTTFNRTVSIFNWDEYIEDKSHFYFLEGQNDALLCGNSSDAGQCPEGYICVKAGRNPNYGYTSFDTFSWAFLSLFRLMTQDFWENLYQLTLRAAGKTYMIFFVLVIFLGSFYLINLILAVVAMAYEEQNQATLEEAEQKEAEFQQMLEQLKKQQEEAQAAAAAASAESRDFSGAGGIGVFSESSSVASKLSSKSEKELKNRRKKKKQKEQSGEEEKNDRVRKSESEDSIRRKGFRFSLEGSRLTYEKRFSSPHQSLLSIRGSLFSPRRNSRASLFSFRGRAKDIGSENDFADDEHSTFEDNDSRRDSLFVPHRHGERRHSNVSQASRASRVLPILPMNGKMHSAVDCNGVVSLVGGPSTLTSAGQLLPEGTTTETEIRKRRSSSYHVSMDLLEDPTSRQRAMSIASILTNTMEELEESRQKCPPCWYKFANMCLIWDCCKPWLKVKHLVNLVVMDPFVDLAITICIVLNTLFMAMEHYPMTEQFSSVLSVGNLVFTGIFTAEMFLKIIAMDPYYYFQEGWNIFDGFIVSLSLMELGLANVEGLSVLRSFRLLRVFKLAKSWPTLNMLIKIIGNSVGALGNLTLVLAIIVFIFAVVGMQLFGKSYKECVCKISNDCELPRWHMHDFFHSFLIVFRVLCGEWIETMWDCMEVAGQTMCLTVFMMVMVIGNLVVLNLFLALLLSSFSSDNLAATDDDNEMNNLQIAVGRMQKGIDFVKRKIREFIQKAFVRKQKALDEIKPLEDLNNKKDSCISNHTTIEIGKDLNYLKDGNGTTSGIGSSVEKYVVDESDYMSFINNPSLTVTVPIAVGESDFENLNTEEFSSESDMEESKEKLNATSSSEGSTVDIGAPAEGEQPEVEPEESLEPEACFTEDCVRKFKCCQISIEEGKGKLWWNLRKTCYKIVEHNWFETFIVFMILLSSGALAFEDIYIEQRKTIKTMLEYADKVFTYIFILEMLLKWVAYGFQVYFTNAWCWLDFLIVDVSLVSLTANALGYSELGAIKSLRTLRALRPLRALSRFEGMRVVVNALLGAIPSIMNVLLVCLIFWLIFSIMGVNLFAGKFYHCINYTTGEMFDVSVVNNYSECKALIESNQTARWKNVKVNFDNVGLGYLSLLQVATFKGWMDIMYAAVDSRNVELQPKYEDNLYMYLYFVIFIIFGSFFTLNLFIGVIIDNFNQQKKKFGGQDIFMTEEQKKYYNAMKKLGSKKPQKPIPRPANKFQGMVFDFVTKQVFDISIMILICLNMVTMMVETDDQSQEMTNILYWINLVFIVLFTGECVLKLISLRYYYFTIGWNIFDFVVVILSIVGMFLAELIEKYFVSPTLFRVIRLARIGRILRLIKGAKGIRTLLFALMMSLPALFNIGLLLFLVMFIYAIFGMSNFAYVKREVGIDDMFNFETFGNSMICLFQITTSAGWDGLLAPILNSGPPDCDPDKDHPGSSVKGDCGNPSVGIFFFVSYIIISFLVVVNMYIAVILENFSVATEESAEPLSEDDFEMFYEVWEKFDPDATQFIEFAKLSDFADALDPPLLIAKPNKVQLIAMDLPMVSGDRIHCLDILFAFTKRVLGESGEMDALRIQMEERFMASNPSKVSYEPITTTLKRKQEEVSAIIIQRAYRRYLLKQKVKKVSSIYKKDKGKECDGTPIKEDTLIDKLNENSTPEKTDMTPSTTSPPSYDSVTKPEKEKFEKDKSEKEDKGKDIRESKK
T1 sequence (Q07699 19-218 partner): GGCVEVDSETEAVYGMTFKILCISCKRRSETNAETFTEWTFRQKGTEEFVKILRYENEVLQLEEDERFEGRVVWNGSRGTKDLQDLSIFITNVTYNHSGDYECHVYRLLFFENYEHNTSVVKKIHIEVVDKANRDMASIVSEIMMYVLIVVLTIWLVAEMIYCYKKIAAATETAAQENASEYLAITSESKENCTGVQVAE
T1 sequence (O60939 30-215 partner): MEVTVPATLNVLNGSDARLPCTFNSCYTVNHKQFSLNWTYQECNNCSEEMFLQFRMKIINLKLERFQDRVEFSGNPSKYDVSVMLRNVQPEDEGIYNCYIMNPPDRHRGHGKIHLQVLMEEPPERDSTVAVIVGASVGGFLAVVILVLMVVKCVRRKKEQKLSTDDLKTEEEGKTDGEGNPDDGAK
Description: HEK-293 cells stably expressing wild-type (WT) hNaV1.2 (SCN2A NCBI # NM_021007.2, SCN1B NCBI # NM_001037.4, SCN2B NCBI # NM_004588.2) were used to record INa. Cells are maintained with standard tissue culture procedures and stable channel expression is maintained with 800 ug/mL G418 and 3 ug/mL Puromycin in the culture medium. Unless otherwise noted, all reagents are purchased from Sigma-Aldrich (St Louis, Mo., U.S.A.).
Assays measuring Use-Dependent Block (UDB) of NaV1.2 are performed on an automated electrophysiology platform, QPatch 16X or QPatch HT (Sophion Bioscience, Copenhagen, Denmark), using the whole cell patch clamp technique to measure currents through the cell membrane. Series resistance compensation is set to 100% and series resistance and whole-cell compensation are performed automatically. Currents stored in the Sophion Bioscience Oracle database (Sophion Bioscience, Copenhagen, Denmark). Analysis is performed using QPatch Assay software and data are compiled in Excel 2010 (Microsoft, Seattle, Wash., U.S.A.). The internal (pipette) solution consists of (in mM) 105 CsF, 10 NaF, 20 CsCl, 2 EGTA, 10 HEPES, 10 Dextrose with a pH of 7.35 and osmolarity of 300 mOsmol/kg. The external (bath) solution contains in (mM): 145 NaCl, 4 KCl, 1.8 CaCl2, 1 MgCl2, 10 dextrose, 10 HEPES, with a pH of 7.35 and osmolarity of 310 mOsmol/kg. Experiments are carried out at 23-25° C.
Compound stocks are routinely made by the Gilead Sample Bank in vials to 10 mM in dimethyl sulfoxide (DMSO). In some cases, when compounds are not soluble in DMSO, they are made in 100% ethanol. Stocks are sonicated as necessary. […]
Cells are allowed to stabilize for 10 min after establishment of the whole-cell configuration before current is measured. The test compound is applied 2 times at 60 second intervals. After the second compound addition, a 200 second wait period was imposed to allow for equilibration. Leak currents are subtracted by using an online P/4 procedure and all currents are low-pass Bessel filtered at 5 kHz and digitized at […].
Results are presented as mean percentage inhibition.
Use-dependent block of NaV1.2 peak current is measured during pulse number 20 of a voltage pulse train (0 mV, 20 ms, 20 pulses, 25 Hz) from a holding potential of −120 mV.
Currents are normalized to the peak current recorded in response to the first pulse in each frequency train. The voltage protocol for UDB was performed in the absence and presence of compound and percentage inhibition was calculated with respect to the compound free condition.
Data analysis is performed using QPatch Assay Software 4.0, and Excel 2002 (Microsoft, Seattle, Wash., U.S.A.).

[1] = target: wild-type human cardiac sodium channel, hNaV 1.5 (Late INa) (Homo sapiens, UniProt Q14524); test: Late INa screening assay (whole cell patch clamp, QPatch, Tefluthrin-induced late current); type: cell-based; conditions: HEK293 hNaV1.5, 10 μM Tefluthrin; for inhibition at 1 µM: HEK293, % inhibition (percent block of late INa) at 1 uM, read-out: Nav1.5 Late INa 1 uM
Chain of wild-type human cardiac sodium channel, hNaV 1.5 (Late INa) (Q14524 whole entry): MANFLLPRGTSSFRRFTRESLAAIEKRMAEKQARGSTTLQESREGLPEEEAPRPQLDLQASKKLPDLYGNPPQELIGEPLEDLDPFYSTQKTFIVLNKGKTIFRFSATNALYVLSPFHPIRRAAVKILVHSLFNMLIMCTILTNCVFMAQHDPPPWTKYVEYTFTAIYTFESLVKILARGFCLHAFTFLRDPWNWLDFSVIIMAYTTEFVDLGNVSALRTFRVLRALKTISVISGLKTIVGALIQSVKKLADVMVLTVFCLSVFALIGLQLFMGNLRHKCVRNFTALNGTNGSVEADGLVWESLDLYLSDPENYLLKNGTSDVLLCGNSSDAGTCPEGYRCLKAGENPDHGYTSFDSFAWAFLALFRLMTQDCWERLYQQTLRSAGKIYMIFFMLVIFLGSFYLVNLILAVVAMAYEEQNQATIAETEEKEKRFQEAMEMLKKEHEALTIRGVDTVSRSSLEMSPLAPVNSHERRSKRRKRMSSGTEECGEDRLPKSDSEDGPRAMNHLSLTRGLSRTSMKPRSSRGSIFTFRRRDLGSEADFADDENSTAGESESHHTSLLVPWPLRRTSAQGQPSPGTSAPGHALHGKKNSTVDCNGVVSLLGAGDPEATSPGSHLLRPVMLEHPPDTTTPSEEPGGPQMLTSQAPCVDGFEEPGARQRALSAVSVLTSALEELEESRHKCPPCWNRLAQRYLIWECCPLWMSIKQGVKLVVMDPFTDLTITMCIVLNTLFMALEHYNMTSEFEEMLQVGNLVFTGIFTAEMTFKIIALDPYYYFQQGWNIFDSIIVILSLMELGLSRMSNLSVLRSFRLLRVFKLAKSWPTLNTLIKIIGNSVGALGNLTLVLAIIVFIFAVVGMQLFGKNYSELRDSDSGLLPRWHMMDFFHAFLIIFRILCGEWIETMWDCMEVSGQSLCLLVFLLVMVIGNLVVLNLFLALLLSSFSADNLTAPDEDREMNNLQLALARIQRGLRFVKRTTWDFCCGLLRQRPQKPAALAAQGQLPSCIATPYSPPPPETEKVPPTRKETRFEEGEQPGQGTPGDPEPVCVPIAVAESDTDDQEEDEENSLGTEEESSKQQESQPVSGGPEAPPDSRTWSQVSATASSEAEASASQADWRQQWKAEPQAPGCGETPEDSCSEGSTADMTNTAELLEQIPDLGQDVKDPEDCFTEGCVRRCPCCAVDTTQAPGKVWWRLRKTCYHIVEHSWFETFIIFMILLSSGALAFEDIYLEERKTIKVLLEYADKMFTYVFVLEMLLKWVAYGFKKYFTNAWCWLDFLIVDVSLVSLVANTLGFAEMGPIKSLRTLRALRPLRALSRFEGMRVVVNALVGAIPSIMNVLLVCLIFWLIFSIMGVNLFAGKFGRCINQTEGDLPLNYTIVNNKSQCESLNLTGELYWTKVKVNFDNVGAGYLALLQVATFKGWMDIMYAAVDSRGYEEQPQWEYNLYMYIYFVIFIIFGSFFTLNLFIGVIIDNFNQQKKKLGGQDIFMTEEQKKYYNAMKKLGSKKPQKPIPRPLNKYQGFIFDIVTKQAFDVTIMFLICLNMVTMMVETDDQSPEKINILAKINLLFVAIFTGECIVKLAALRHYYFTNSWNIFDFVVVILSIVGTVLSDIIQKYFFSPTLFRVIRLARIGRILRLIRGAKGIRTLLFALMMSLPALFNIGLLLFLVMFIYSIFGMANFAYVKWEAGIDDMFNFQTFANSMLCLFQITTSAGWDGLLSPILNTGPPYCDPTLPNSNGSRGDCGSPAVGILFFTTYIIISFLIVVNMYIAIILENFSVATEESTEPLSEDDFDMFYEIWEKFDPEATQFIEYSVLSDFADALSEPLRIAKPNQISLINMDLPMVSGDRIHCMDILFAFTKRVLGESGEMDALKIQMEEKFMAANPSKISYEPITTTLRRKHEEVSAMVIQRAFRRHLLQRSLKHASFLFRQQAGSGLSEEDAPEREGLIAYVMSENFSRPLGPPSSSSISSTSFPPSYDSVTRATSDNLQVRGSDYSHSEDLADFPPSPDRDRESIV
Description: The cardiac late sodium current (Late INa) and peak sodium current (Peak INa) assays are performed on an automated electrophysiology platform, QPatch 16X or QPatch HT (Sophion Bioscience, Copenhagen, Denmark) using the whole cell patch clamp technique to measure currents through the cell membrane. The assay uses an HEK293 (human embryonic kidney) cell line heterologously expressing the wild-type human cardiac sodium channel, hNaV 1.5, purchased from Millipore (Billerica, Mass.). No beta subunits were coexpressed with the Na channel alpha subunit. Cells are maintained with standard tissue culture procedures and stable channel expression is maintained with 400 μg/mL Geneticin in the culture medium. Experiments are carried out at 23-25° C.
For both the Late INa and Peak INa assays, series resistance compensation is set to 100% and series resistance and whole-cell compensation are performed automatically. Currents are digitized at 25 kHz and low-pass filtered at 5 kHz and stored in the Sophion Bioscience Oracle database (Sophion Bioscience, Copenhagen, Denmark). Analysis is performed using QPatch Assay software and data are compiled in Excel 2010 (Microsoft, Seattle, Wash., U.S.A.).
Compound stocks are routinely made by the Gilead Sample Bank in vials to 10 mM in dimethyl sulfoxide (DMSO). In some cases, when compounds are not soluble in DMSO, they are made in 100% ethanol. Stocks are sonicated as necessary. The extracellular solution for screening Late INa is composed of: 140 mM NaCl, 4 mM KCl, 1.8 mM CaCl2, 1 mM MgCl2, 10 mM HEPES and 10 mM Dextrose with pH adjusted to 7.35 using NaOH. The intracellular solution contains: 105 mM CsF, 20 mM CsCl, 10 NaF, 2 mM EGTA, 10 mM HEPES and 10 mM Dextrose with pH adjusted to 7.35 with CsOH. Compounds are diluted in extracellular solution using a MicroLab Nimbus (Hamilton Robotics, Reno, Nev.) to between 0.3 and 3 μM in glass vials and transferred to glass well plates before robotic addition to the cells. The 0 mM Na extracellular solution (0Na-ECF) used at the end of each experiment for the Late INa and Peak INa assays to measure baseline current contains: 140 Choline-Cl; 4 mM KCl, 1.8 mM CaCl2; 1 mM MgCl2; 10 mM HEPES and 10 mM Dextrose with pH was adjusted to 7.35 with CsOH.
For the Late INa assay, sodium channels are activated every 10 seconds (0.1 Hz) by depolarizing the cell membrane to −20 mV for 250 milliseconds (ms) from a holding potential of −120 mV.
Compounds were tested to determine their activity in blocking the late sodium current. Late INa was generated by adding 10 μM Tefluthrin (pyrethroid) to the extracellular solution. For the purposes of the screening, Late INa is defined as the mean current between 240 ms and 265 ms during the voltage step to −20 mV. After establishing the whole cell recording configuration, Late INa activator is added to each well 4 times over a 15 minute period so that the late component of the Na current reaches a stable value. Compounds were then added (typically at 0.3 or 1 μM), in the presence of the Late INa activator, with 3 additions over the course of 5 minutes. Measurements were made at the end of exposure to the third compound addition and values were normalized to the current level when all Na^+ was removed from the extracellular solution after two additions of 0Na-ECF.
Results are reported as percent block of late INa and results were analyzed by incorporating rundown correction for the Late INa.

| Compound | Nav1.2 UDB 25 Hz 1 uM (hNaV1.2 (SCN2A); use-dependent block at 1 uM) | Nav1.2 UDB 25 Hz 10 uM (hNaV1.2 (SCN2A); use-dependent block at 10 uM) | inhibition at 1 µM [1] | inhibition at 1 µM (hNaV1.2 (SCN2A); use-dependent block at 1 uM) | inhibition at 10 µM (hNaV1.2 (SCN2A); use-dependent block at 10 uM) | Nav1.5 Late INa 1 uM ([1]; % inhibition (percent block of late INa) at 1 uM) |
| --- | --- | --- | --- | --- | --- | --- |
| COc1cc(OC(F)(F)F)ccc1-c1ccc2c(c1)CN(Cc1ncccn1)C(=O)O2 [Example 1, 6-(2-methoxy-4-(trifluoromethoxy)phenyl)-3-(pyrimidin-2-ylmethyl)-3,4-dihydro-2H-benzo[e][1,3]oxazin-2-one] | 7.9% | 37.0% |  |  |  |  |
| O=C1Oc2ccc(-c3ccc(C(F)(F)F)cc3)cc2CN1Cc1ccncc1 [Example 2, 3-(pyridin-4-ylmethyl)-6-(4-(trifluoromethyl)phenyl)-3,4-dihydro-2H-benzo[e][1,3]oxazin-2-one] |  |  | 41.5% | 19.8% | 28.1% |  |
| Cc1cc(-c2ccc3c(c2)CN(Cc2ncccn2)C(=O)O3)ccc1OC(F)(F)F [Example 5, 6-(3-methyl-4-(trifluoromethoxy)phenyl)-3-(pyrimidin-2-ylmethyl)-3,4-dihydro-2H-benzo[e][1,3]oxazin-2-one] |  |  | 37.3% | < 5% | 24.9% |  |
| O=C1Oc2ccc(-c3ccc(Cl)c(F)c3)cc2CN1Cc1ncccn1 [Example 6, 6-(4-chloro-3-fluorophenyl)-3-(pyrimidin-2-ylmethyl)-3,4-dihydro-2H-benzo[e][1,3]oxazin-2-one] |  |  | 43.3% |  |  |  |
| O=C1Oc2ccc(-c3ccc(OC(F)(F)F)cc3F)cc2CN1Cc1ncccn1 [Example 7, 6-(2-fluoro-4-(trifluoromethoxy)phenyl)-3-(pyrimidin-2-ylmethyl)-3,4-dihydro-2H-benzo[e][1,3]oxazin-2-one] |  |  | 42.3% | 18% | 56.3% |  |
| Cc1cc(OC(F)(F)F)ccc1-c1ccc2c(c1)CN(Cc1ncccn1)C(=O)O2 [Example 8, 6-(2-methyl-4-(trifluoromethoxy)phenyl)-3-(pyrimidin-2-ylmethyl)-3,4-dihydro-2H-benzo[e][1,3]oxazin-2-one] |  |  | 52.7% | < 5% | 11% |  |
| COc1cc(OC(F)(F)F)ccc1-c1ccc2c(c1)CN(Cc1ncccn1)C(=O)O2 [Example 9, 6-(2-methoxy-4-(trifluoromethoxy)phenyl)-3-(pyrimidin-2-ylmethyl)-3,4-dihydro-2H-benzo[e][1,3]oxazin-2-one] |  |  |  | 7.9% | 37% | 45.0% |
| O=C1Oc2ccc(-c3ccc(OC(F)(F)F)c(F)c3)cc2CN1Cc1ncccn1 [Example 10, 6-(3-fluoro-4-(trifluoromethoxy)phenyl)-3-(pyrimidin-2-ylmethyl)-3,4-dihydro-2H-benzo[e][1,3]oxazin-2-one] |  |  | 57.2% | 30.2% | 75% |  |
| CC1c2cc(-c3ccc(Cl)c(F)c3)ccc2OC(=O)N1Cc1ncccn1 (centres unmarked) [Example 11, 6-(4-chloro-3-fluorophenyl)-4-methyl-3-(pyrimidin-2-ylmethyl)-3,4-dihydro-2H-benzo[e][1,3]oxazin-2-one] |  |  | 32.5% | 29.9% | 77.2% |  |
| Cc1cnc(CN2Cc3cc(-c4ccc(OC(F)(F)F)cc4)ccc3OC2=O)nc1 [Example 12, 3-((5-methylpyrimidin-2-yl)methyl)-6-(4-(trifluoromethoxy)phenyl)-3,4-dihydro-2H-benzo[e][1,3]oxazin-2-one] |  |  | 50.5% | 15.4% | 68.8% |  |
| CC1c2cc(-c3ccc(OC(F)(F)F)cc3)ccc2OC(=O)N1Cc1ncccn1 (centres unmarked) [Example 48, 4-methyl-3-(pyrimidin-2-ylmethyl)-6-(4-(trifluoromethoxy)phenyl)-3,4-dihydro-2H-benzo[e][1,3]oxazin-2-one] |  |  | 53.2% |  |  |  |
| CC1c2cc(-c3cccc(OC(F)(F)F)c3)ccc2OC(=O)N1Cc1ncccn1 (centres unmarked) [Example 50, 4-methyl-3-(pyrimidin-2-ylmethyl)-6-(3-(trifluoromethoxy)phenyl)-3,4-dihydro-2H-benzo[e][1,3]oxazin-2-one] |  |  | 34.9% |  |  |  |
